# From patent US6822064B1, “Polymerizable macromers and preparation thereof” (Council of Scientific and Industrial Research, priority 2003, dated 2004)
# Biological target: lysozyme (Gallus gallus, UniProt P00698)
# Assay: Estimation of relative inhibition of lysozyme (Micrococcus lysodeikticus substrate, absorbance at 450 nm)
# Format: biochemical
# Settings: for ligand concentration at maximum inhibition: ligand concentration at which the maximum inhibition is achieved; for Imax: maximum relative inhibition of lysozyme
# Source text: This example describes the estimation of inhibition of lysozyme by monomers, oligomers and macromer. I50 denotes the concentration of the ligand containing NAG at which 50% of the highest achievable inhibition is achieved. Imax denotes the ligand concentration at which the maximum inhibition is achieved.
# Micrococcus lysodeikticus is a substrate for the enzyme lysozyme. Relative binding of macromers was estimated by using a procedure reported by Neuberger and Wilson (1967).
# 1.5% w/v stock solutions of macromer was prepared in 0.0066 M phosphate buffer pH 6.2 containing 0.0154 m sodium chloride and 0.008 M sodium azide. One milliliter of stock solution containing different ligand concentration was mixed with 1.6 ml of 78 μg/ml of Micrococcus lysodeikticus in a 3-ml capacity glass cuvette. The mixture was incubated for 5 minutes at 20° C. To this mixture 0.1 ml of lysozyme (27 μg/ml) was added and mixed thoroughly. The relative absorbance at 450 nm (Δ450) was recorded for 30 seconds. A blank reading without the ligand was noted and the change in the absorbance per second was calculated. Then relative inhibition was calculated.
# Chain of lysozyme (P00698 19-147): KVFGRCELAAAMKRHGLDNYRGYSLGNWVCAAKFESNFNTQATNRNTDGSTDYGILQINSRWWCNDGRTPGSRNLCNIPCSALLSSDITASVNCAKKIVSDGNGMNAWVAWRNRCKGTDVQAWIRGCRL
Structure (SMILES),"IC50 (ligand concentration at which 50% of the highest achievable inhibition is achieved, pH 6.2, 20° C., read-out: I50)",ligand concentration at maximum inhibition,Imax
"C=CC(=O)OC[C@H]1OC(O)[C@H](NC(C)=O)[C@@H](O)[C@@H]1O (some centres unmarked) [Ac. NAG, Acryloyl N-Acetyl Glucosamine]",14.8 mM,14.81 mM,50.00
"CC(=O)N[C@H]1C(O)O[C@H](CO)[C@@H](O)[C@@H]1O (some centres unmarked) [NAG, N-Acetyl Glucosamine, reference compound]",–,92.50 mM,55.29
